According to patent US8465912B2, “Methods for the identification of agents that inhibit mesenchymal-like tumor cells or their formation” (OSI Pharmaceuticals, LLC, priority 2009, dated 2013):

How the values were obtained:
Assay type in all cases: cell-based, human
H1650 cells [1] = experiment: Pharmacological inhibition of ligand-induced EMT (Western blot, morphology); conditions: MEK inhibitor 1 1 μM, LY294002 10 μM, JAK inhibitor 1 0.25 μM
Protocol: Supernatents were micro-centrifuged at max speed, 4° C. for 10 minutes. […] SDS PAGE was run using a Bis-Tris gel system (Invitrogen NuPAGE) with MOPS buffer (Invitrogen NP0001), transferred onto nitrocellulose using the iBLOT system (Invitrogen) and blocked in PBS-T (0.1% Tween 20), 5% non-fat milk or BSA in guidance with primary Ab supplier requirements. […] Secondary HRP labeled antibodies used were: anti Rabbit IgG HRP (Amersham NA934) 1:5000 dilution; anti Mouse IgG HRP (Sigma A2304) 1:2000 dilution. Membranes were visualized using the Supersignal ELISA Femto Maximum Sensitivity Substrate (Pierce).
Cells were treated with inhibitor 30 minutes prior to ligand stimulation. Medium, inhibitor and ligand were refreshed on experimental day 3 to 4. Cells were photographed and lysed in RIPA buffer on day 7 for Western blotting.
To determine what signaling pathways are important for EMT in this model, cells were stimulated for 7 days with OSM, HGF+OSM or OSM+TGFβ in the presence of inhibitors to MEK, PI3K and JAK, since these pathways are established downstream effectors of these ligands. After 7 days, we photographed the cells to show morphology and harvested the cells to analyze markers by immunoblot (FIG. 6).

H1650 cells [2] = experiment: Induction of EMT by growth factors and cytokines in 2D culture (immunoblot, morphology, confocal); conditions: H1650 2D; for E-cadherin localization by confocal microscopy: 7 days ligand, untreated cells show membrane E-cadherin; for Induction of EMT (E-cadherin, vimentin, morphology): 7 days, HGF, EGF, OSM 100 ng/ml, TGFβ1 10 ng/ml, TNFα 25 ng/ml
Protocol: (§1) The human cell line, H1650 was cultured in […] containing 10% FBS, 2 mM L-Glutamine, and 1 mM sodium pyruvate, at 37° C., 5% CO2. Growth factor and cytokine induced EMT was monitored over 7 days. Growth factor and cytokines were obtained from commercial sources and used as follows: HGF (Hepatocyte growth factor) at 100 ng/ml, EGF (Epidermal Growth Factor) at 100 ng/ml, OSM (Oncostatin M) at 100 ng/ml, TGFβ1 (Transforming growth factor, beta 1) at 10 ng/ml, and TNFα (Tumor necrosis factor alpha) at 25 ng/ml.
Cells were harvested by washing once with PBS, and lysing on ice for 10 minutes with scraping (using a Cell Lifter, Corning Inc. #3008) in ice cold RIPA buffer (Sigma R0278) containing Protease inhibitor (Sigma P8340), Phosphatase inhibitors (Sigma P2850, P5726) and 200 μM Sodium Vanadate. Supernatents were micro-centrifuged at max speed, 4° C. for 10 minutes. Protein content was quantitated using the BCA method (Pierce #23225) and samples were normalized to total protein in Laemli buffer and heated at 100° C. for 10 minutes. SDS PAGE was run using a Bis-Tris gel system (Invitrogen NuPAGE) with MOPS buffer (Invitrogen NP0001), transferred onto nitrocellulose using the iBLOT system (Invitrogen) and blocked in PBS-T (0.1% Tween 20), 5% non-fat milk or BSA in guidance with primary Ab supplier requirements. All primary antibodies were incubated overnight at 4° C. in PBS-T (0.1% Tween 20) in either 5% non-fat milk or BSA, diluted to the following working dilutions: anti E Cadherin (Santa Cruz #sc-21791) 1:500 dilution; anti Vimentin (BD Biosciences #550513) 1:2000 dilution;); 1:1000 dilution; anti β-Actin (Sigma, A5441) 1:10,000 dilution. Secondary HRP labeled antibodies used were: anti Rabbit IgG HRP (Amersham NA934) 1:5000 dilution; anti Mouse IgG HRP (Sigma A2304) 1:2000 dilution. Membranes were visualized using the Supersignal ELISA Femto Maximum Sensitivity Substrate (Pierce).
Cells were fixed in 4% paraformaldehyde (Electron Microscopy Sciences #15710)/PBS (Gibco#14190) for 10 minutes at room temperature, washed with PBS and permeabilized with 0.1% Triton X100 (Sigma P1379) in PBS for 10 minutes at room temp. Cells were blocked with 3% BSA/PBS for at least 15 minutes then incubated with primary antibody diluted in blocking buffer for a minimum of two hours at room temperature. Anti E-Cadherin was used at a 1:75 dilution and anti Vimentin (Millipore #AB5733) was used at a 1:2000 dilution. Cells were washed, incubated with fluorescently-labeled secondary antibodies for one hour, followed by a 5 minute TO-PRO3 nuclear counterstain (Invitrogen #T3605) at room temperature, washed and mounted on slides with Pro-Long Gold anti-fade reagent (Invitrogen #P36934). Secondary fluorescent antibodies used were: anti mouse 488 nm (Invitrogen #A11029) 1:600 dilution; anti chicken TRITC (Chemicon #AP194R) 1:50 dilution. Stained cells were captured on a Leica DMRXE microscope/SP2 scanner using Leica Confocal Software (LCS).
The ability of cell lines to undergo epithelial to mesenchymal transition (EMT) was investigated using different extracellular ligand drivers. A panel of NSCLC, pancreatic, and breast cancer cell lines were screened by treatment of cells for 7 days in presence of respective ligands, either singly or in combination. Initial screening determined the ability of the ligand to cause morphology change, to down-regulate the epithelial marker, E-cadherin or to up-regulate a mesenchymal marker such as vimentin. Potential EMT cell models should up-regulate a mesenchymal marker and display morphology change. More robust models would show a down-regulation of E-cadherin expression.

H1650 cells [3] = experiment: Doubling time of ligand-treated H1650 cells; conditions: 7 days ligand, doubling time over following two weeks, versus untreated
Protocol: as §1
Cells were plated and treated with ligand for 7 days. On day 7, cells were counted and re-plated on 6 cm cell culture dishes. On days 3, 5, 7, 10 and 12, cells were trypsinized and counted to determine the total number of cells in the dish, in duplicate. Doubling time was calculated using the multiple time point method on the website www.doubling-time.com.

H1650 cells [4] = experiment: qPCR of EMT gene changes in response to ligand treatment; conditions: 7 days ligand, qPCR normalized to GAPDH and untreated control
Protocol: as §1
Cells were plated and treated with ligand for 7 days. At the time of harvest, cells were trypsinized and snap frozen for later use. Total RNA was isolated using RNAqueous-4 PCR Kit (Ambion, AM1914). Samples were DNase treated using the Turbo DNA-Free kit (Ambion, AM1907) and reverse transcribed using Superscript III (Invitrogen, 18080-044) for qPCR analysis. Taqman primers and Locked-Nucleic Acid probes were designed using ProbeFinder software (Universal Probe library, Roche). For mRNA analysis, real time PCR was performed using the ABI 7900HT series PCR machine. Thermocycle conditions were as follows: 50° C. for 2 minutes, 95° C. for 10 minutes, 95° C. for 15 seconds, 50° C. for 10 seconds, 60° C. for 1 minute. Data was collected over 45 cycles and then normalized to GAPDH and further normalized to the untreated control sample.

## CC(C)(C)c1nc2c3cc[nH]c(=O)c3c3cc(F)ccc3c2[nH]1 [JAK inhibitor 1]
H1650 cells [1]; 7 days HGF+OSM
  Effect on HGF+OSM-induced EMT: partial
H1650 cells [1]; 7 days OSM+TGFβ
  Effect on OSM+TGFβ-induced EMT: near complete block
H1650 cells [1]; 7 days OSM
  Effect on OSM-induced EMT: near complete block
H1650 cells [1]; 7 days, immunoblot and morphology
  Effect on EMT in all three ligand models (OSM, HGF+OSM, OSM+TGFβ): blocked EMT to varying degrees

## EGF: Epidermal Growth Factor, commercial protein ligand used at 100 ng/ml
H1650 cells [2]
  E-cadherin localization by confocal microscopy: absence of E-cadherin or mislocalization of E-cadherin to the cytoplasm
  Induction of EMT (E-cadherin, vimentin, morphology): partial EMT

## HGF: Hepatocyte growth factor, commercial protein ligand used at 100 ng/ml to induce EMT in H1650 cells
H1650 cells [3]
  Change in doubling time: modest decrease
H1650 cells [4]
  ACTN1 gene change: NC (Fold changes less than 3 are reported as NC)
  CDH1 gene change: NC (Fold changes less than 3 are reported as NC)
  CDH2 gene change: NC (Fold changes less than 3 are reported as NC)
  CLDN3 gene change: NC (Fold changes less than 3 are reported as NC)
  ERBB3 gene change: NC (Fold changes less than 3 are reported as NC)
  ITGB3 gene change: NC (Fold changes less than 3 are reported as NC)
  MTA3 gene change: NC (Fold changes less than 3 are reported as NC)
  OCLN gene change: NC (Fold changes less than 3 are reported as NC)
  PLAUR gene change: NC (Fold changes less than 3 are reported as NC)
  SNAI1 gene change: NC (Fold changes less than 3 are reported as NC)
  SNAI2 gene change: 6.43 fold change
  SPARC gene change: NC (Fold changes less than 3 are reported as NC)
  TJP3 gene change: NC (Fold changes less than 3 are reported as NC)
  TWIST1 gene change: NC (Fold changes less than 3 are reported as NC)
  VCAN gene change: 6.71 fold change
  VIM gene change: 4.92 fold change
  ZEB1 gene change: NC (Fold changes less than 3 are reported as NC)
  ZEB2 gene change: NC (Fold changes less than 3 are reported as NC)
H1650 cells [2]
  E-cadherin localization by confocal microscopy: absence of E-cadherin or mislocalization of E-cadherin to the cytoplasm
  Induction of EMT (E-cadherin, vimentin, morphology): partial EMT

## TGFβ: Transforming growth factor, beta 1, used at 10 ng/ml
H1650 cells [3]
  Change in doubling time: no effect
H1650 cells [4]
  CDH1 gene change: NC (Fold changes less than 3 are reported as NC)
  CDH2 gene change: NC (Fold changes less than 3 are reported as NC)
  CLDN3 gene change: NC (Fold changes less than 3 are reported as NC)
  ERBB3 gene change: NC (Fold changes less than 3 are reported as NC)
  ITGB3 gene change: NC (Fold changes less than 3 are reported as NC)
  MTA3 gene change: NC (Fold changes less than 3 are reported as NC)
  OCLN gene change: NC (Fold changes less than 3 are reported as NC)
  PLAUR gene change: NC (Fold changes less than 3 are reported as NC)
  SNAI1 gene change: NC (Fold changes less than 3 are reported as NC)
  SNAI2 gene change: 4.9 fold change
  SPARC gene change: NC (Fold changes less than 3 are reported as NC)
  TJP3 gene change: NC (Fold changes less than 3 are reported as NC)
  TWIST1 gene change: NC (Fold changes less than 3 are reported as NC)
  VCAN gene change: 5.04 fold change
  VIM gene change: 3.99 fold change
  ZEB1 gene change: NC (Fold changes less than 3 are reported as NC)
  ZEB2 gene change: NC (Fold changes less than 3 are reported as NC)
H1650 cells [2]
  Induction of EMT (E-cadherin, vimentin, morphology): do not stimulate EMT by themselves

## TNFα
H1650 cells [2]
  Induction of EMT (E-cadherin, vimentin, morphology): do not stimulate EMT by themselves

B1: OSM: Oncostatin M, commercial cytokine used at 100 ng/ml (protein, UniProt P13725 26-221, looked up)
Oncostatin-M: AAIGSCSKEYRVLLGQLQKQTDLMQDTSRLLDPYIRIQGLDVPKLREHCRERPGAFPSEETLRGLGRRGFLQTLNATLGCVLHRLADLEQRLPKAQDLERSGLNIEDLEKLQMARPNILGLRNNIYCMAQLLDNSDTAEPTKAGRGASQPPTPTPASDAFQRKLEGCRFLHGYHRFMHSVGRVFSKWGESPNRSRR
H1650 cells [3]
  Change in doubling time: modest decrease
H1650 cells [4]
  ACTN1 gene change: NC (Fold changes less than 3 are reported as NC)
  CDH1 gene change: NC (Fold changes less than 3 are reported as NC)
  CDH2 gene change: NC (Fold changes less than 3 are reported as NC)
  CLDN3 gene change: NC (Fold changes less than 3 are reported as NC)
  ERBB3 gene change: NC (Fold changes less than 3 are reported as NC)
  ITGB3 gene change: 13.25 fold change
  MTA3 gene change: NC (Fold changes less than 3 are reported as NC)
  OCLN gene change: NC (Fold changes less than 3 are reported as NC)
  PLAUR gene change: NC (Fold changes less than 3 are reported as NC)
  SNAI1 gene change: NC (Fold changes less than 3 are reported as NC)
  SNAI2 gene change: 3.44 fold change
  SPARC gene change: NC (Fold changes less than 3 are reported as NC)
  TJP3 gene change: NC (Fold changes less than 3 are reported as NC)
  TWIST1 gene change: NC (Fold changes less than 3 are reported as NC)
  VCAN gene change: 3.88 fold change
  VIM gene change: 4.18 fold change
  ZEB1 gene change: 3.15 fold change
  ZEB2 gene change: 4.43 fold change
H1650 cells [2]
  Induction of EMT (E-cadherin, vimentin, morphology): do not stimulate EMT by themselves
